Results on 16 molecules are retold here after ChEMBL document CHEMBL1131845, “Naphthazarin derivatives (II): formation of glutathione conjugate, inhibition of DNA topoisomerase-I and cytotoxicity” (Bioorg Med Chem Lett, 1999).

The subject of one test is L1210. Briefly: Cytotoxicity against L1210 cells. It is filed as functional. To be noted: Mus musculus, read-out: ED50 (the source's name).
Test [1] is described as follows: Concentration formed during 5 min incubation of quinone (1 mM) with GSH (5 mM).

Converted amounts (≈) assume the structure as drawn.

Regarding `CCCCC(O)c1cc(OC)c2c(c1OC)C(=O)C=CC2=O` (stereo not given), the EC50 in the test with L1210 was 0.057 µg/mL (≈ 0.187 µM).

On to `CCCCCCC(O)C1=CC(=O)c2c(OC)ccc(OC)c2C1=O` (stereo not given), for which the EC50 with L1210 worked out at 0.732 µg/mL (≈ 2.2 µM). The molecule also displayed a Concentration in test [1] of 0.072 mM.

For the molecule `CCC(O)C1=CC(=O)c2c(OC)ccc(OC)c2C1=O` (stereo not given), the EC50 in the test on L1210 came to 0.516 µg/mL (≈ 1.87 µM). The molecule further displayed a Concentration in test [1] of 0.084 mM.

For the molecule `CCCCCC(O)C1=CC(=O)c2c(OC)ccc(OC)c2C1=O` (stereo not given), the EC50 in the test on L1210 is 0.378 µg/mL (≈ 1.19 µM). The molecule further displayed a Concentration in test [1] of 0.124 mM.

Turning to `CCCCCCC(O)c1cc(OC)c2c(c1OC)C(=O)C=CC2=O` (stereo not given), in the test on L1210, the EC50 was 0.22 µg/mL (≈ 0.662 µM). For the same molecule, in test [1], the Concentration was 0.182 mM.

Consider `CCCC(O)C1=CC(=O)c2c(OC)ccc(OC)c2C1=O` (stereo not given), for which, in the test with L1210, the EC50 is 0.409 µg/mL (≈ 1.41 µM). In test [1], this molecule registered a Concentration of 0.116 mM.

For `CCCCC(O)C1=CC(=O)c2c(OC)ccc(OC)c2C1=O` (stereo not given), the EC50 in the test on L1210 came out at 0.412 µg/mL (≈ 1.35 µM). This molecule also showed a Concentration in test [1] of 0.131 mM.

For `COc1ccc(OC)c2c1C(=O)C=C(C(C)O)C2=O` (stereo not given), the EC50 in the test on L1210 was found to be 0.487 µg/mL (≈ 1.86 µM). The same molecule displayed a Concentration in test [1] of 0.125 mM.

Take `COc1cc(C(C)O)c(OC)c2c1C(=O)C=CC2=O` (stereo not given): the EC50 in the test with L1210 is 0.132 µg/mL (≈ 0.503 µM). The same molecule showed a Concentration in test [1] of 0.304 mM.

For the molecule `CCCCCCCC(O)C1=CC(=O)c2c(OC)ccc(OC)c2C1=O` (stereo not given), the EC50 in the test with L1210 came out at 1.04 µg/mL (≈ 3.01 µM). In addition, in test [1], the Concentration is 0.06 mM.

For the molecule `CCCCCCCC(O)c1cc(OC)c2c(c1OC)C(=O)C=CC2=O` (stereo not given), the EC50 in the test with L1210 came to 0.274 µg/mL (≈ 0.791 µM). The Concentration in test [1] was found to be 0.137 mM.

For `COc1ccc(OC)c2c1C(=O)C=C(CO)C2=O`, in the test with L1210, the EC50 amounted to 0.524 µg/mL (≈ 2.11 µM). For the same molecule, in test [1], the Concentration is 0.13 mM.

Take `COc1cc(CO)c(OC)c2c1C(=O)C=CC2=O`: in the test with L1210, the EC50 turned out to be 0.062 µg/mL (≈ 0.25 µM). In addition, in test [1], the Concentration was determined as 0.314 mM.

Regarding `CCCCCC(O)c1cc(OC)c2c(c1OC)C(=O)C=CC2=O` (stereo not given), the EC50 in the test on L1210 was found to be 0.066 µg/mL (≈ 0.207 µM). This molecule also came in with a Concentration in test [1] of 0.28 mM.

As for `CCCC(O)c1cc(OC)c2c(c1OC)C(=O)C=CC2=O` (stereo not given), in the test with L1210, the EC50 turned out to be 0.043 µg/mL (≈ 0.148 µM).

Turning to `CCC(O)c1cc(OC)c2c(c1OC)C(=O)C=CC2=O` (stereo not given), the EC50 in the test with L1210 was 0.085 µg/mL (≈ 0.308 µM). Moreover, in test [1], the Concentration was determined as 0.295 mM.
